Experimental data as given in ChEMBL document CHEMBL1146441, “Naphthalenone and Phthalide Metabolites from Lachnum papyraceum 1” (J Nat Prod, 1997).
In brackets after ≈: the same amount, converted by molar mass. Activity calls are given as the source filed them. The rule behind the calls is not given here.

Experiments:
[1] = tested on: Micrococcus luteus; experiment: Antibacterial activity against Micrococcus luteus; assay type: functional
[2] = tested on: Enterobacter cloacae subsp. dissolvens; experiment: Antibacterial activity against Enterobacter dissolvens; assay type: functional
[3] = tested on: Rhizomucor miehei; experiment: Antifungal activity against Mucor miehei; assay type: functional
[4] = tested on: Paecilomyces variotii; experiment: Antifungal activity against Paecilomyces variotii; assay type: functional
[5] = tested on: Penicillium chrysogenum; experiment: Antifungal activity against Penicillium notatum; assay type: functional
[6] = tested on: L1210; experiment: Cytotoxicity against mouse L1210 cells after 48 hrs; assay type: functional, cell-based; conditions: L1210, 48 h
[7] = tested on: Lepidium sativum; experiment: Phytotoxicity against Lepidium sativum assessed per disk; assay type: functional, organism-based

| MIC [1] [µg/mL] | MIC [2] [µg/mL] | MIC [3] [µg/mL] | MIC [4] [µg/mL] | MIC [5] [µg/mL] | SMILES | Activity [1] | Activity [2] | Activity [3] | Activity [4] | Activity [5] | IC50 [6] [µg/mL] | Activity [7] | IC50 [7] [µg] |
| --- | --- | --- | --- | --- | --- | --- | --- | --- | --- | --- | --- | --- | --- |
| – | – | – | – | – | COC(=O)c1c(OC)c(C)c(OCC=C(C)C)c2c1C(=O)OC2 | inactive | inactive | inactive | inactive | inactive | 25 (≈ 78 µM) | inactive | – |
| 100 (≈ 450 µM) | 100 (≈ 450 µM) | 100 (≈ 450 µM) | 100 (≈ 450 µM) | 100 (≈ 450 µM) | COc1cc2c(c(O)c1C)C(=O)CCC2O (stereo unspecified) | – | – | – | – | – | 25 (≈ 112 µM) | – | 100 |
| – | – | – | – | – | COc1c(C)c(OCC=C(C)C)c2c(c1C(=O)O)C(=O)OC2 | inactive | inactive | inactive | inactive | inactive | 50 (≈ 163 µM) | inactive | – |
